Like-named read-outs stand apart in the source and are kept apart here.
Columns and labels:
[1] = mice, single intraperitoneal injection at 10 mg/kg; cited from earlier work
A549 cells = assay: Anti-proliferation assay (Alamar Blue metabolism); conditions: Homo sapiens;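 further: 384-well plates, 72–80 h exposure at 37 °C, Alamar Blue fluorescence (ex 530 nm) read 3.5–5 h after dye addition, inhibition relative to mean of vehicle-only wells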
Description: Human non-small cells lung carcinoma cells A549 (ATCC# CCL-185), were grown at 37±0.5° C. and 5% CO2 in DMEM supplemented with 10% FBS, 2 mM glutamine, 1% penicillin, and 1% streptomycin.
Stock solutions (1000×) of each compound were prepared in DMSO and stored at −20° C. Master stock plates of 2-fold or 4-fold serial dilutions of individual compounds were prepared in 384-well plates. Combination matrices of test compounds were generated from these master stock plates by dilution into growth media described above. […] The combination matrices were used immediately and discarded.
The anti-proliferation assays were performed in 384-well plates. 6.6 μL of 10× stock solutions from the combination matrices were added to 40 μL of culture media in assay wells. The tumor cells were liberated from the culture flask using a solution of 0.25% trypsin. Cells were diluted in culture media such that 3000 or 6000 cells were delivered in 20 μL of media into each assay well. Assay plates were incubated for 72-80 hours at 37° C. ±0.5° C. with 5% CO2. Twenty microliters of 20% Alamar Blue warmed to 37° C. ±0.5° C. was added to each assay well following the incubation period. Alamar Blue metabolism was quantified by the amount of fluorescence intensity 3.5-5.0 hours after addition. Quantification, using an LJL Analyst AD reader (LJL Biosystems), was taken in the middle of the well with high attenuation, a 100 msec read time, an excitation filter at 530 nm, and an emission filter at 575 nm. For some experiments, quantification was performed using a Wallac Victor^2 reader. Measurements were taken at the top of the well with stabilized energy lamp control; a 100 msec read time, an excitation filter at 530 nm, and an emission filter at 590 nm.
The percent inhibition (% I) for each well was calculated using the following formula: % I=[(avg. untreated wells−treated well)/(avg. untreated wells)]×100 The average untreated well value (avg. untreated wells) is the arithmetic mean of 40 wells from the same assay plate treated with vehicle alone.
Inhibition of proliferation was measured by anti-proliferation assay as described below after incubation with the test compound(s) for 72 hours.

[2] = molecular target: T1, protein tyrosine phosphatase 1B (PTP1 B) (Homo sapiens, UniProt P18031); conditions: cited from earlier work
T1 sequence (P18031 1-435): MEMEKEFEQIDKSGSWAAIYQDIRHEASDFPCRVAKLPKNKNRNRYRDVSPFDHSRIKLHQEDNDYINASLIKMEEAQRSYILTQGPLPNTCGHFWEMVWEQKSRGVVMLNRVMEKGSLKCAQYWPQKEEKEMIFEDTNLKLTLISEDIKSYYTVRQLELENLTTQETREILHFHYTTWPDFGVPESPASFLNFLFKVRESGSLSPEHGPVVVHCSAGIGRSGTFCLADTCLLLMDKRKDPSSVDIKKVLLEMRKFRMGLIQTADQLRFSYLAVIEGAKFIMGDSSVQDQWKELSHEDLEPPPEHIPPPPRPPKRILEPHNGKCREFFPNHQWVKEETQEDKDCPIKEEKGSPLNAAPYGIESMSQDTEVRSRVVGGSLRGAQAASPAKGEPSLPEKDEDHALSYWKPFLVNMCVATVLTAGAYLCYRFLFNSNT

endo-exonuclease = conditions: PCT Publication No. WO 01/35935; cited from earlier work
[3] = test system: phosphatases of regenerating liver (PRL-1, PRL-2, or PRL-3); conditions: cited from earlier work

N=C(N)c1ccc(OCCCCCOc2ccc(C(=N)N)cc2)cc1 [Pentamidine, pentamidine]
tissue distribution [1]: The concentration in the kidneys was the highest, followed by that in the liver
inhibition at 0.013 µM (A549 cells; A549, read-out: Percent inhibition of Alamar Blue Metabolism, pentamidine 0.013 μM alone (Table 3)): -28.2%
inhibition at 0.013 µM (A549 cells; A549, read-out: Percent inhibition of Alamar Blue Metabolism, pentamidine 0.013 μM alone (Table 4)): 8.4%
inhibition at 0.013 µM (A549 cells; A549, read-out: Percent inhibition of Alamar Blue Metabolism, pentamidine 0.013 μM alone (Table 5)): 30.2%
inhibition at 0.013 µM (A549 cells; A549, read-out: Percent inhibition of Alamar Blue Metabolism, pentamidine 0.013 μM alone (Table 6)): -6.7%
inhibition at 0.013 µM (A549 cells; A549, read-out: Percent inhibition of Alamar Blue Metabolism, pentamidine 0.013 μM alone (Table 7)): -4.4%
inhibition at 0.026 µM (A549 cells; A549, read-out: Percent inhibition of Alamar Blue Metabolism, pentamidine 0.026 μM alone (Table 3)): -25.3%
inhibition at 0.026 µM (A549 cells; A549, read-out: Percent inhibition of Alamar Blue Metabolism, pentamidine 0.026 μM alone (Table 4)): -6.8%
inhibition at 0.026 µM (A549 cells; A549, read-out: Percent inhibition of Alamar Blue Metabolism, pentamidine 0.026 μM alone (Table 5)): 28.4%
inhibition at 0.026 µM (A549 cells; A549, read-out: Percent inhibition of Alamar Blue Metabolism, pentamidine 0.026 μM alone (Table 6)): 13.1%
inhibition at 0.026 µM (A549 cells; A549, read-out: Percent inhibition of Alamar Blue Metabolism, pentamidine 0.026 μM alone (Table 7)): -3%
inhibition at 0.05 µM (A549 cells; A549, read-out: Percent inhibition of Alamar Blue Metabolism, pentamidine 0.050 μM alone (Table 8)): 2.4%
inhibition at 0.053 µM (A549 cells; A549, read-out: Percent inhibition of Alamar Blue Metabolism, pentamidine 0.053 μM alone (Table 3)): -12.4%
inhibition at 0.053 µM (A549 cells; A549, read-out: Percent inhibition of Alamar Blue Metabolism, pentamidine 0.053 μM alone (Table 4)): -8.8%
inhibition at 0.053 µM (A549 cells; A549, read-out: Percent inhibition of Alamar Blue Metabolism, pentamidine 0.053 μM alone (Table 5)): 30.4%
inhibition at 0.053 µM (A549 cells; A549, read-out: Percent inhibition of Alamar Blue Metabolism, pentamidine 0.053 μM alone (Table 6)): 1.1%
inhibition at 0.053 µM (A549 cells; A549, read-out: Percent inhibition of Alamar Blue Metabolism, pentamidine 0.053 μM alone (Table 7)): -1.9%
inhibition at 0.1 µM (A549 cells; A549, read-out: Percent inhibition of Alamar Blue Metabolism, pentamidine 0.100 μM alone (Table 8)): -3.1%
inhibition at 0.105 µM (A549 cells; A549, read-out: Percent inhibition of Alamar Blue Metabolism, pentamidine 0.105 μM alone (Table 3)): 4.7%
inhibition at 0.105 µM (A549 cells; A549, read-out: Percent inhibition of Alamar Blue Metabolism, pentamidine 0.105 μM alone (Table 4)): -3.7%
inhibition at 0.105 µM (A549 cells; A549, read-out: Percent inhibition of Alamar Blue Metabolism, pentamidine 0.105 μM alone (Table 5)): 33.7%
inhibition at 0.105 µM (A549 cells; A549, read-out: Percent inhibition of Alamar Blue Metabolism, pentamidine 0.105 μM alone (Table 6)): -3.7%
inhibition at 0.105 µM (A549 cells; A549, read-out: Percent inhibition of Alamar Blue Metabolism, pentamidine 0.105 μM alone (Table 7)): 9.2%
inhibition at 0.2 µM (A549 cells; A549, read-out: Percent inhibition of Alamar Blue Metabolism, pentamidine 0.200 μM alone (Table 8)): -0.7%
inhibition at 0.35 µM (A549 cells; A549, read-out: Percent inhibition of Alamar Blue Metabolism, pentamidine 0.350 μM alone (Table 8)): -1.5%
inhibition at 0.421 µM (A549 cells; A549, read-out: Percent inhibition of Alamar Blue Metabolism, pentamidine 0.421 μM alone (Table 4)): 50%
inhibition at 0.421 µM (A549 cells; A549, read-out: Percent inhibition of Alamar Blue Metabolism, pentamidine 0.421 μM alone (Table 6)): 32.6%
inhibition at 0.421 µM (A549 cells; A549, read-out: Percent inhibition of Alamar Blue Metabolism, pentamidine 0.421 μM alone (Table 7)): 10.5%
inhibition at 0.422 µM (A549 cells; A549, read-out: Percent inhibition of Alamar Blue Metabolism, pentamidine 0.422 μM alone (Table 3)): 52.1%
inhibition at 0.422 µM (A549 cells; A549, read-out: Percent inhibition of Alamar Blue Metabolism, pentamidine 0.422 μM alone (Table 5)): 68.2%
inhibition at 0.5 µM (A549 cells; A549, read-out: Percent inhibition of Alamar Blue Metabolism, pentamidine 0.500 μM alone (Table 8)): 15.8%
inhibition at 0.7 µM (A549 cells; A549, read-out: Percent inhibition of Alamar Blue Metabolism, pentamidine 0.700 μM alone (Table 8)): 21.7%
inhibition at 1 µM (A549 cells; A549, read-out: Percent inhibition of Alamar Blue Metabolism, pentamidine 1.000 μM alone (Table 8)): 48.9%
inhibition at 1.3 µM (A549 cells; A549, read-out: Percent inhibition of Alamar Blue Metabolism, pentamidine 1.300 μM alone (Table 8)): 64.7%
inhibition at 1.685 µM (A549 cells; A549, read-out: Percent inhibition of Alamar Blue Metabolism, pentamidine 1.685 μM alone (Table 4)): 79.1%
inhibition at 1.685 µM (A549 cells; A549, read-out: Percent inhibition of Alamar Blue Metabolism, pentamidine 1.685 μM alone (Table 6)): 71.9%
inhibition at 1.685 µM (A549 cells; A549, read-out: Percent inhibition of Alamar Blue Metabolism, pentamidine 1.685 μM alone (Table 7)): 62.9%
inhibition at 1.687 µM (A549 cells; A549, read-out: Percent inhibition of Alamar Blue Metabolism, pentamidine 1.687 μM alone (Table 3)): 78.2%
inhibition at 1.687 µM (A549 cells; A549, read-out: Percent inhibition of Alamar Blue Metabolism, pentamidine 1.687 μM alone (Table 5)): 83.1%
inhibition at 1.7 µM (A549 cells; A549, read-out: Percent inhibition of Alamar Blue Metabolism, pentamidine 1.700 μM alone (Table 8)): 70.1%
inhibition at 3.37 µM (A549 cells; A549, read-out: Percent inhibition of Alamar Blue Metabolism, pentamidine 3.370 μM alone (Table 4)): 79.4%
inhibition at 3.37 µM (A549 cells; A549, read-out: Percent inhibition of Alamar Blue Metabolism, pentamidine 3.370 μM alone (Table 6)): 80.6%
inhibition at 3.37 µM (A549 cells; A549, read-out: Percent inhibition of Alamar Blue Metabolism, pentamidine 3.370 μM alone (Table 7)): 73.7%
inhibition at 3.374 µM (A549 cells; A549, read-out: Percent inhibition of Alamar Blue Metabolism, pentamidine 3.374 μM alone (Table 3)): 85.4%
inhibition at 3.374 µM (A549 cells; A549, read-out: Percent inhibition of Alamar Blue Metabolism, pentamidine 3.374 μM alone (Table 5)): 87.5%
inhibition of protein tyrosine phosphatase 1B [2]: effective inhibitor
inhibition of endo-exonuclease activity (endo-exonuclease): inhibit the activity of endo-exonuclease
inhibition of phosphatases of regenerating liver [3]: potent inhibitor
